Reference: ChEMBL document CHEMBL1201862, “PubChem BioAssay data set” (2004)
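Dose response: 5 concentrations. Exposure: 48 h. Format: 96-well plates. Endpoint: linear interpolation; highest concentration if not reached. The concentration for 50% growth inhibition is given as GI50.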 Calls of active or inactive are those of the source. Rule as the data show it: active = GI50 up to about 1.1 µM and inactive = higher.

Columns and labels:
Assay in all cases: NCI-60 cell line screen, 48 h
ACHN = test system: ACHN
CAKI-1 = test system: CAKI-1
HCT-116 = test system: HCT-116
HL-60 = test system: HL-60
HOP-62 = test system: HOP-62
HT-29 = test system: HT-29
LOX IMVI = test system: LOX IMVI
LXFL 529 = test system: LXFL 529
NCI-H23 = test system: NCI-H23
OVCAR-8 = test system: OVCAR-8
RPMI-8226 = test system: RPMI-8226
SF-539 = test system: SF-539
SK-MEL-5 = test system: SK-MEL-5
SK-OV-3 = test system: SK-OV-3
SN12C = test system: SN12C
SW-620 = test system: SW-620
UACC-257 = test system: UACC-257
BT-549 = test system: BT-549
Hs-578T = test system: Hs-578T
MDA-MB-231 = test system: MDA-MB-231

Compound | GI50 (ACHN) | GI50 (CAKI-1) | GI50 (HCT-116) | GI50 (HL-60) | GI50 (HOP-62) | GI50 (HT-29) | GI50 (LOX IMVI) | GI50 (LXFL 529) | GI50 (NCI-H23) | GI50 (OVCAR-8) | GI50 (RPMI-8226) | GI50 (SF-539) | GI50 (SK-MEL-5) | GI50 (SK-OV-3) | GI50 (SN12C) | GI50 (SW-620) | GI50 (UACC-257) | GI50 (BT-549) | GI50 (Hs-578T) | GI50 (MDA-MB-231)
CCCCCCCCCCCC(=O)C1=C(O)CC(O)CC1=O (stereo not drawn) | 99.8 µM (inactive) | > 100 µM (inactive) | > 100 µM (inactive) | 23.1 µM (inactive) | > 100 µM (inactive) | > 100 µM (inactive) | 54.6 µM (inactive) | 83.6 µM (inactive) | > 100 µM (inactive) | 74.1 µM (inactive) | 87.3 µM (inactive) | > 100 µM (inactive) | > 100 µM (inactive) | > 100 µM (inactive) | > 100 µM (inactive) | > 100 µM (inactive) | > 100 µM (inactive) | – | – | –
C[N+](C)(C)CCC(=O)N1C/C(=C\c2ccccc2)C(=O)/C(=C/c2ccccc2)C1 | 6.3 µM (inactive) | 6.49 µM (inactive) | 1.53 µM (inactive) | 2.27 µM (inactive) | 18.1 µM (inactive) | 2.79 µM (inactive) | 1.7 µM (inactive) | 3.78 µM (inactive) | 10.4 µM (inactive) | 3.52 µM (inactive) | 0.385 µM (active) | 5.06 µM (inactive) | 9.95 µM (inactive) | 23.7 µM (inactive) | 2.08 µM (inactive) | 0.904 µM (active) | 12.2 µM (inactive) | 2.33 µM (inactive) | 4.31 µM (inactive) | 3.22 µM (inactive)
N#COc1ccc(Oc2ccccc2)cc1 | 29.2 µM (inactive) | 77.6 µM (inactive) | 61.7 µM (inactive) | 26.3 µM (inactive) | 55.7 µM (inactive) | 72.4 µM (inactive) | 23.1 µM (inactive) | > 100 µM (inactive) | 39.4 µM (inactive) | 49.5 µM (inactive) | 30.4 µM (inactive) | 26.8 µM (inactive) | 46.6 µM (inactive) | > 100 µM (inactive) | 62.4 µM (inactive) | – | > 100 µM (inactive) | – | – | –
CC(=O)OC1(C#N)CC2OC1C1C2N1C(=O)OC(C)(C)C (stereo not drawn) | > 100 µM (inactive) | > 100 µM (inactive) | > 100 µM (inactive) | > 100 µM (inactive) | > 100 µM (inactive) | – | > 100 µM (inactive) | > 100 µM (inactive) | > 100 µM (inactive) | > 100 µM (inactive) | > 100 µM (inactive) | > 100 µM (inactive) | > 100 µM (inactive) | > 100 µM (inactive) | > 100 µM (inactive) | > 100 µM (inactive) | – | – | – | –
Nc1ncnc2sc(Nc3ccccc3)nc12 | 12.3 µM (inactive) | 55.5 µM (inactive) | – | 2.54 µM (inactive) | 81.7 µM (inactive) | 7.28 µM (inactive) | 99.3 µM (inactive) | > 100 µM (inactive) | 48.3 µM (inactive) | > 100 µM (inactive) | > 100 µM (inactive) | > 100 µM (inactive) | – | 46.2 µM (inactive) | 80.4 µM (inactive) | > 100 µM (inactive) | > 100 µM (inactive) | – | – | –
CC1CCC2CC(=O)OC([C@@H]3C(=O)O[C@@H](C4=CCCC4)C4C(C)CCC43)C12 (stereo partly drawn) | 61.4 µM (inactive) | 72.6 µM (inactive) | 43.9 µM (inactive) | 23.1 µM (inactive) | > 100 µM (inactive) | 61 µM (inactive) | > 100 µM (inactive) | 47.4 µM (inactive) | > 100 µM (inactive) | 68.5 µM (inactive) | 37.2 µM (inactive) | > 100 µM (inactive) | 97.7 µM (inactive) | > 100 µM (inactive) | > 100 µM (inactive) | 70 µM (inactive) | > 100 µM (inactive) | – | – | –
Oc1cccc(-c2cc(O)c3cc4c(cc3n2)OCO4)c1 | 5.85 µM (inactive) | – | 1.43 µM (inactive) | 1.26 µM (inactive) | 1.6 µM (inactive) | 3.37 µM (inactive) | 4.98 µM (inactive) | 1.87 µM (inactive) | 4.3 µM (inactive) | 2.85 µM (inactive) | 4.03 µM (inactive) | 1.7 µM (inactive) | 1.46 µM (inactive) | 1.41 µM (inactive) | 3.03 µM (inactive) | 3.21 µM (inactive) | > 26.1 µM (inactive) | 0.867 µM (active) | 0.457 µM (active) | 1.92 µM (inactive)
Nc1cccc(-c2cc(O)c3cc4c(cc3n2)OCO4)c1 | 3.87 µM (inactive) | 3.68 µM (inactive) | 0.389 µM (active) | 1.93 µM (inactive) | 1.87 µM (inactive) | 1.74 µM (inactive) | 1.23 µM (inactive) | 0.527 µM (active) | 2.86 µM (inactive) | 2.11 µM (inactive) | 6.35 µM (inactive) | 0.544 µM (active) | 0.427 µM (active) | 1.28 µM (inactive) | 4.59 µM (inactive) | 0.519 µM (active) | – | > 100 µM (inactive) | 0.389 µM (active) | 1.73 µM (inactive)
